SMILES strings stand for the structures. Where a name gives a salt, the structure may show the parent alone.

isolated recombinant JAK2 kinase domain, sequence (O60674 849-1124): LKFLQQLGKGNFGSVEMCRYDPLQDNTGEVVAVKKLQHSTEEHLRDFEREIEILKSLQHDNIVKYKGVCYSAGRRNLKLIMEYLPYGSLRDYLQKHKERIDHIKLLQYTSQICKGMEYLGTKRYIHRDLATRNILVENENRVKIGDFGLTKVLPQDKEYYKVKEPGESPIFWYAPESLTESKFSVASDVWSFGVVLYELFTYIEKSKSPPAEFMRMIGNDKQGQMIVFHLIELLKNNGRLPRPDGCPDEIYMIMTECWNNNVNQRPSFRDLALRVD

The first assay concerns the target isolated recombinant JAK2 kinase domain (Homo sapiens (Human), UniProt O60674).
Experiment: not given
The settings on record: read-out: JAK2 Ki; isolated recombinant JAK2 kinase domain, 25 μM ATP.
Turning to `CN1CCC(N(C)C(=O)c2ccc(Nc3nc4c(N5CCC(C)(c6ccccc6)CC5)cccn4n3)cc2)CC1` [Example 1-1, N-methyl-4-(8-(4-methyl-4-phenylpiperidin-1-yl)-[1,2,4]triazolo[1,5-a]pyridin-2-ylamino)-N-(1-methylpiperidin-4-yl)benzamide], the Ki came to 0.85 nM. Still for that read-out and setting: in the case of `CN1CCC(N(C)C(=O)c2ccc(Nc3nc4c(N5CCC(O)(C6CCCCC6)CC5)cccn4n3)cc2)CC1` [Example 1-2, 4-[[8-(4-cyclohexyl-4-hydroxy-1-piperidyl)-[1,2,4]triazolo[1,5-a]pyridin-2-yl]amino]-N-methyl-N-(1-methyl-4-piperidyl)benzamide] it was 14.2 nM. The same measure, in the same setting: in the case of `CN1CCC(N(C)C(=O)c2ccc(Nc3nc4c(N5CCC(O)CC5)cccn4n3)cc2)CC1` [Example 1-3, 4-[[8-(4-hydroxy-1-piperidyl)-[1,2,4]triazolo[1,5-a]pyridin-2-yl]amino]-N-methyl-N-(1-methyl-4-piperidyl)benzamide; hydrochloride] it was 92.4 nM; in that of `CN1CCC(N(C)C(=O)c2ccc(Nc3nc4c(N5CC=C(c6ccccc6)CC5)cccn4n3)cc2)CC1` [Example 1-4, N-methyl-N-(1-methyl-4-piperidyl)-4-[[8-(4-phenyl-3,6-dihydro-2H-pyridin-1-yl)-[1,2,4]triazolo[1,5-a]pyridin-2-yl]amino]benzamide], 12.4 nM. Consider `CN1CCC(N(C)C(=O)c2ccc(Nc3nc4c(N5CCC(C)(O)CC5)cccn4n3)cc2)CC1` [Example 1-6, 4-[[8-(4-hydroxy-4-methyl-1-piperidyl)-[1,2,4]triazolo[1,5-a]pyridin-2-yl]amino]-N-methyl-N-(1-methyl-4-piperidyl)benzamide; hydrochloride], for which the Ki stood at 39.9 nM. On the same count and under the same terms, with `CN1CCC(N(C)C(=O)c2ccc(Nc3nc4c(N5CCCC(O)(c6ccccc6)CC5)cccn4n3)cc2)CC1` (centres unmarked) [Example 1-7, 4-[[8-(4-hydroxy-4-phenyl-azepan-1-yl)-[1,2,4]triazolo[1,5-a]pyridin-2-yl]amino]-N-methyl-N-(1-methyl-4-piperidyl)benzamide] the figure was 6.51 nM; with `CN1CCC(N(C)C(=O)c2ccc(Nc3nc4c(N5CCC=C(c6ccccc6)CC5)cccn4n3)cc2)CC1` [Example 1-14, N-methyl-N-(1-methyl-4-piperidyl)-4-[[8-(4-phenyl-2,3,6,7-tetrahydroazepin-1-yl)-[1,2,4]triazolo[1,5-a]pyridin-2-yl]amino]benzamide], 7.53 nM. Same read-out and setting: with `CN1CCC(N(C)C(=O)c2ccc(Nc3nc4c(N5CC=C(c6ccccc6)CCC5)cccn4n3)cc2)CC1` [Example 1-15, N-methyl-N-(1-methyl-4-piperidyl)-4-[[8-(5-phenyl-2,3,4,7-tetrahydroazepin-1-yl)-[1,2,4]triazolo[1,5-a]pyridin-2-yl]amino]benzamide] the figure was 12.2 nM. On the same count and under the same terms, in the case of `CN1CCC(N(C)C(=O)c2ccc(Nc3nc4c(N5CCC(F)(c6ccccc6)CC5)cccn4n3)cc2)CC1` [Example 1-16, 4-[[8-(4-fluoro-4-phenyl-1-piperidyl)-[1,2,4]triazolo[1,5-a]pyridin-2-yl]amino]-N-methyl-N-(1-methyl-4-piperidyl)benzamide] it was 25.5 nM. For the molecule `CN1CCC(N(C)C(=O)c2ccc(Nc3nc4c(N5CCC(O)(c6cccc(Cl)c6)CC5)cccn4n3)cc2)CC1` [Example 1-18, 4-[[8-[4-(3-chlorophenyl)-4-hydroxy-1-piperidyl]-[1,2,4]triazolo[1,5-a]pyridin-2-yl]amino]-N-methyl-N-(1-methyl-4-piperidyl)benzamide], the inhibition constant (Ki) came out at 17.3 nM.

Consider `CN1CCC(N(C)C(=O)c2ccc(Nc3nc4c(N5CCC(O)(c6ccncc6)CC5)cccn4n3)cc2)CC1` [Example 1-20, 4-[[8-[4-hydroxy-4-(4-pyridyl)-1-piperidyl]-[1,2,4]triazolo[1,5-a]pyridin-2-yl]amino]-N-methyl-N-(1-methyl-4-piperidyl)benzamide], for which the Ki was determined as 36.8 nM. In the case of `CN1CCC(N(C)C(=O)c2ccc(Nc3nc4c(N5CCC(O)(c6cccc(C#N)c6)CC5)cccn4n3)cc2)CC1` [Example 1-22, 4-[[8-[4-(3-cyanophenyl)-4-hydroxy-1-piperidyl]-[1,2,4]triazolo[1,5-a]pyridin-2-yl]amino]-N-methyl-N-(1-methyl-4-piperidyl)benzamide], the Ki came out at 32.1 nM. On to `CN1CCC(N(C)C(=O)c2ccc(Nc3nc4c(N5CCC6(CNC(=O)O6)C5)cccn4n3)cc2)CC1` (centres unmarked) [Example 1-24, N-methyl-N-(1-methyl-4-piperidyl)-4-[[8-(2-oxo-1-oxa-3,7-diazaspiro[4.4]nonan-7-yl)-[1,2,4]triazolo[1,5-a]pyridin-2-yl]amino]benzamide], for which the Ki worked out at 19.1 nM.

In the next assay the test system is JAK1-dependent STAT6 phosphorylation downstream of IL-13 stimulation in TF-1 human erythroleukemia cells. Put plainly: cells. The settings on record: TF-1, read-out: IL-13-pSTAT6 IC50.
Take `Cc1cccc(C2CCN(C(=O)c3ccc(Nc4nc5c(C6=CCN(C(=O)CCC(F)(F)F)CC6)cccn5n4)cc3)CC2)n1` [Example 2-468, 4,4,4-trifluoro-1-[4-[2-[4-[4-(6-methyl-2-pyridyl)piperidine-1-carbonyl]anilino]-[1,2,4]triazolo[1,5-a]pyridin-8-yl]-3,6-dihydro-2H-pyridin-1-yl]butan-1-one]: the IC50 came to 12.8 nM.

For `O=C(N[C@H]1CN2CCC1CC2)c1ccc(Nc2nc3c(C4=CCN(C(=O)CCC(F)(F)F)CC4)cccn3n2)cc1` [Example 2-469, N-[(3R)-quinuclidin-3-yl]-4-[[8-[1-(4,4,4-trifluorobutanoyl)-3,6-dihydro-2H-pyridin-4-yl]-[1,2,4]triazolo[1,5-a]pyridin-2-yl]amino]benzamide], the IC50 was 83.8 nM. Same read-out and setting: with `CNC(=O)C1CN(C(=O)c2ccc(Nc3nc4c(C5=CCN(C(=O)CCC(F)(F)F)CC5)cccn4n3)cc2)CCN1CCc1ccccc1` (centres unmarked) [Example 2-470, N-methyl-1-(2-phenylethyl)-4-[4-[[8-[1-(4,4,4-trifluorobutanoyl)-3,6-dihydro-2H-pyridin-4-yl]-[1,2,4]triazolo[1,5-a]pyridin-2-yl]amino]benzoyl] piperazine-2-carboxamide] the figure was 13 nM; with `O=C(CCC(F)(F)F)N1CC=C(c2cccn3nc(Nc4ccc(C(=O)N5CCC(Cc6ccccn6)C5)cc4)nc23)CC1` (centres unmarked) [Example 2-471, 4,4,4-trifluoro-1-[4-[2-[4-[3-(2-pyridylmethyl)pyrrolidine-1-carbonyl]anilino]-[1,2,4]triazolo[1,5-a]pyridin-8-yl]-3,6-dihydro-2H-pyridin-1-yl]butan-1-one], 6.4 nM; with `CN(Cc1ccccc1)C1CCCN(C(=O)c2ccc(Nc3nc4c(C5=CCN(C(=O)CCC(F)(F)F)CC5)cccn4n3)cc2)C1` (centres unmarked) [Example 2-472, 1-[4-[2-[4-[3-[benzyl(methyl)amino]piperidine-1-carbonyl]anilino]-[1,2,4]triazolo[1,5-a]pyridin-8-yl]-3,6-dihydro-2H-pyridin-1-yl]-4,4,4-trifluoro-butan-1-one], 67.9 nM.

With `CN(C(=O)c1ccc(Nc2nc3c(C4=CCN(C(=O)CCC(F)(F)F)CC4)cccn3n2)cc1)C1CCN(Cc2ccccc2)C1` (centres unmarked) [Example 2-473, N-(1-benzylpyrrolidin-3-yl)-N-methyl-4-[[8-[1-(4,4,4-trifluorobutanoyl)-3,6-dihydro-2H-pyridin-4-yl]-[1,2,4]triazolo[1,5-a]pyridin-2-yl]amino]benzamide], the IC50 was 48.1 nM. As to `O=C(CCC(F)(F)F)N1CC=C(c2cccn3nc(Nc4ccc(C(=O)N5CCN(CCN6CCOCC6)CC5)cc4)nc23)CC1` [Example 2-474, 4,4,4-trifluoro-1-[4-[2-[4-[4-(2-morpholinoethyl)piperazine-1-carbonyl]anilino]-[1,2,4]triazolo[1,5-a]pyridin-8-yl]-3,6-dihydro-2H-pyridin-1-yl]butan-1-one], the 50% inhibitory concentration (IC50) was 14.1 nM. The same measure, in the same setting: in the case of `CN1CCN(C(=O)C2CCN(C(=O)c3ccc(Nc4nc5c(C6=CCN(C(=O)CCC(F)(F)F)CC6)cccn5n4)cc3)CC2)CC1` [Example 2-475, 4,4,4-trifluoro-1-[4-[2-[4-[4-(4-methylpiperazine-1-carbonyl)piperidine-1-carbonyl]anilino]-[1,2,4]triazolo[1,5-a]pyridin-8-yl]-3,6-dihydro-2H-pyridin-1-yl]butan-1-one] it was 42.9 nM. On to `Cc1cccnc1CN(C)C(=O)c1ccc(Nc2nc3c(C4=CCN(C(=O)CCC(F)(F)F)CC4)cccn3n2)cc1` [Example 2-476, N-methyl-N-[(3-methyl-2-pyridyl)methyl]-4-[[8-[1-(4,4,4-trifluorobutanoyl)-3,6-dihydro-2H-pyridin-4-yl]-[1,2,4]triazolo[1,5-a]pyridin-2-yl]amino]benzamide], for which the 50% inhibitory concentration (IC50) came out at 10.5 nM.

With `CN(Cc1ccc2c(c1)CCCN2C)C(=O)c1ccc(Nc2nc3c(C4=CCN(C(=O)CCC(F)(F)F)CC4)cccn3n2)cc1` [Example 2-477, N-methyl-N-[(1-methyl-3,4-dihydro-2H-quinolin-6-yl)methyl]-4-[[8-[1-(4,4,4-trifluorobutanoyl)-3,6-dihydro-2H-pyridin-4-yl]-[1,2,4]triazolo[1,5-a]pyridin-2-yl]amino]benzamide], the IC50 was found to be 113 nM.

With `O=C(NCCc1ccccn1)c1ccc(Nc2nc3c(C4=CCN(C(=O)CCC(F)(F)F)CC4)cccn3n2)cc1` [Example 2-478, N-[2-(2-pyridyl)ethyl]-4-[[8-[1-(4,4,4-trifluorobutanoyl)-3,6-dihydro-2H-pyridin-4-yl]-[1,2,4]triazolo[1,5-a]pyridin-2-yl]amino]benzamide], the IC50 was determined as 4.8 nM. On to `CN1CCC(N(C)C(=O)c2ccc(Nc3nc4c(C5=CCN(S(=O)(=O)N6CC(C)(C)C6)CC5)cccn4n3)cc2)CC1` [Example 2-479, 4-[[8-[1-(3,3-dimethylazetidin-1-yl)sulfonyl-3,6-dihydro-2H-pyridin-4-yl]-[1,2,4]triazolo[1,5-a]pyridin-2-yl]amino]-N-methyl-N-(1-methyl-4-piperidyl)benzamide], for which the IC50 was 239 nM. Same read-out and setting: in the case of `CN1CCC(N(C)C(=O)c2ccc(Nc3nc4c(C5=CCN(C(=O)N6CC(C)(C)C6)CCC5)cccn4n3)cc2)CC1` [Example 2-480, 4-[[8-[1-(3,3-dimethylazetidine-1-carbonyl)-2,3,4,7-tetrahydroazepin-5-yl]-[1,2,4]triazolo[1,5-a]pyridin-2-yl]amino]-N-methyl-N-(1-methyl-4-piperidyl)benzamide] it was 178 nM.

A word on the Ki: it is the equilibrium dissociation constant of an inhibitor or competing ligand from its target. The IC50 is the concentration at which inhibition is half-maximal.

The values are drawn from patent publication US9873709B2 (priority 2013, dated 2018).
